Source: paper PMC2891776 (Journal of medicinal chemistry, 2010)

How the values were obtained:
hASBT [1] = molecular target: T1, hASBT (Homo sapiens, UniProt Q12908); conditions: previously reported; cited from earlier work
T1 sequence (Q12908 1-348): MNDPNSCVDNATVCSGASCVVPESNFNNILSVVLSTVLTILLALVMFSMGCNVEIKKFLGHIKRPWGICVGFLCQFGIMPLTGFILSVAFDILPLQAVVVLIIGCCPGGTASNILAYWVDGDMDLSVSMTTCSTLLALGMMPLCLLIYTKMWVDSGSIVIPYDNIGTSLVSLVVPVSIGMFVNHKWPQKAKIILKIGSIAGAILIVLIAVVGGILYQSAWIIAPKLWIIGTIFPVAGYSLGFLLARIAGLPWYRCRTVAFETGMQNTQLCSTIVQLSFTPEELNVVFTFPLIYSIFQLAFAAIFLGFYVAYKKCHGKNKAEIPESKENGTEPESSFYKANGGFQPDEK

hASBT [2] = molecular target: T1, hASBT; experiment: Inhibition of taurocholate uptake in hASBT-MDCK monolayers; assay type: cell-based; conditions: for fold more potent than 33: ratio of Ki relative to 33

In the case of `C[C@H](CCC(=O)N[C@@H](CCC(=O)O)C(=O)O)[C@H]1CC[C@H]2[C@@H]3[C@H](O)C[C@@H]4C[C@H](O)CC[C@]4(C)[C@H]3CC[C@]12C` [glu-CDCA, Glutamic acid CDCA amide], the “hASBT activity” value (hASBT [1]) is given as “poor activity”.
With `CC(CCC(=O)NC(CCC(=O)Nc1cccc(C(=O)O)c1)C(=O)OOCc1ccccc1)C1CCC2C3C(O)CC4CC(O)CCC4(C)C3CCC12C` (centres unmarked) [Compound 30] the “hASBT inhibition potency” value (hASBT [2]; inhibition of taurocholate uptake) was “potent inhibitor”.
For `C[C@H](CCC(=O)N[C@@H](CCC(=O)Nc1ccccc1C(=O)O)C(=O)O)[C@H]1CC[C@H]2[C@@H]3[C@H](O)C[C@H]4C[C@H](O)CC[C@]4(C)[C@H]3CC[C@]12C` [Compound 31], the “fold more potent than 33” value (hASBT [2]) was “over 2 fold”.
For `C[C@H](CCC(=O)N[C@@H](CCC(=O)Nc1cccc(C(=O)O)c1)C(=O)O)[C@H]1CC[C@H]2[C@@H]3[C@H](O)C[C@H]4C[C@H](O)CC[C@]4(C)[C@H]3CC[C@]12C` [Compound 32], the “Affinity (switch on or off)” value (hASBT [2]; observed affinity of dianions, molecular switch state) was “High (on)” and the “fold more potent than 33” value (hASBT [2]) was “over 2 fold”.
